Source: US20250066318A1, “HETEROCYCLIC COMPOUNDS AS DYRK1A INHIBITORS” (Prothena Biosciences Limited, priority 2021, published 2025)

Target: DYRK1A (Homo sapiens (Human), UniProt Q13627)
Test: DYRK1A Inhibition Assay
Type: biochemical
Conditions: Selected Compounds of Formula (I); DYRK1A 1 nM, ATP 20 μM, Ser/Thr 18 peptide 2 μM, 90 minutes; read-out: DYRK1 IC50
Procedure: DYRK1A—Invitrogen #PV4105
Ser/Thr 18 peptide—Invitrogen #PR8227U Phos-Ser/Thr 18 peptide—Invitrogen #PR8229U Assay plate—PerkinElmer #6007279
Development reagent A—Invitrogen #PR5194B Development buffer—Invitrogen #PR4876B
1. Test compounds were diluted to 1 mM in DMSO 2. Stock was further diluted 3-fold using Echo platform 3. 100 nL of DMSO into Columns 1 and 24 and 100 nL of compounds dilutions to Columns 2-23 in a plate.
1. Add 5 μL enzyme & substrate mixture to each well in Column 2-23 and A24-H24 wells of the 384-well assay plate; 2. Add 5 μL 0% Phosphorylation control to A1-H1 and I24-P24 wells of the assay plate; 3. Add 5 μL 100% Phosphorylation control to I1-P1 wells of the assay plate; 4. Spin the assay plate (1000 rpm, 1 minute @23° C.); 5. Incubate enzyme with compounds for 15 minutes at 23° C.; 6. Add 5 μL ATP solution to each well of the assay plate; 7. Spin the plate (1000 rpm, 1 minute @23° C.); 8. Incubate the assay plate for 90 minutes at 23° C.; 9. Add 10 μL Development reagent A to each well of the assay plate; 10. Centrifuge the plate at 1000 rpm about 15 seconds and seal a film over assay plate. Incubate the assay plate for 30 minutes at 23° C. 11. Read assay plates on Envision (see Tables A, B, and C).
Final Compound Concentrations
Assay buffer: 50 mM Hepes pH7.5, 10 mM MgCl2, 1 mM EDTA, 0.01% Brij-35
Ser/Thr 18 peptide: 2 μM Reaction time: 90 minutes

SMILES | IC50 [nM]
O=C(O)[C@H]1C[C@H](Nc2ncc(-c3ccc4cnccc4c3)s2)C1 [Compound 72] | ≤ 10
CN1CC(OC(=O)Nc2cc3cc(-c4cnn(C)c4)ccc3cn2)C1 [Compound 84] | ≤ 10
O=C(O)C1CCN(Cc2cncc3ccc(-c4cnc(C#CC5CCOCC5)s4)cc23)CC1 [Compound 91] | 100 to 1000
CC(C)(O)C#Cc1ncc(-c2ccc3cncc(CN4CCC(C(=O)O)CC4)c3c2)s1 [Compound 109] | > 1000
